Series [1] can be described thus: Temperature-ramped pin-on-disk (ball-on-disk) tribometry, friction (COF). The conditions noted are these: for friction reduction: temperature ramp 180 to 350° C. over 30 min. On the procedure: (§1) Silver complex 1 was combined with PAO4 and 15W40 military-grade engine oil (FF oil). The complex was dissolved in the minimal amount of hexane (1 mL per 1 g silver complex) and then added to the oil to achieve complex concentrations of 1.0, 2.5 and 5.0 wt %. Before testing, the oil-silver complex mixtures were stirred with a magnetic stir bar for 30 minutes to ensure a homogeneous dispersion.
Table 1 outlines the experimental conditions used in this study. A ball bearing made of M50 bearing steel with 62 HRC hardness and a diameter of 4 mm is used to apply a vertical load to a 52100 steel disk with 50 HRC hardness and a diameter to 3″ as the disk rotates. The surface of the disk is coated with a 2 mL solution of 1 in the desired base oil. The sliding test conditions for all the experiments were: Normal load=25 N, sliding velocity=200 rpm. In the temperature ramp experiments, the temperature is increased from 180-350° C. over 30 min in order to detect any change in frictional characteristics as the oil degrades, and partially evaporates, and once the metallic Ag is deposited.
Silver complex 1 was added to oil at 0.0, 1.0, 2.5, and 5 wt % loadings. A minimal amount of hexanes was added to aid in solubilizing the complex (1 mL hexanes/g of complex) before mixing with oil. The oils used are PAO4, a base oil with no additives, and a military-grade 15W40 oil, which is fully formulated (FF) but contains no silver-containing additives (confirmed by elemental analysis).

Series [2] can be described thus: Wear analysis by white light interferometry of wear scars. The conditions noted are these: disks of temperature ramp tests. The protocol:
After friction tests were completed, the disks were sonicated in a hexane bath to remove oil residue. The volume of the wear scar was measured using a Zygo NewView 7100 white light interferometer. The wear volume and material buildup around the wear scar were used to calculate the wear rate, which is defined as the volume removed per unit load per sliding distance. Each additive concentration in oil was tested twice for friction and wear performance. Energy-dispersive X-ray spectroscopy (EDS) on Hitachi S4800-II and Hitachi SU8030 Scanning Electron Microscopes (SEMs) was used to examine the morphology of the disk surface and deposited silver content.
The disks used in the temperature ramp tests (FIG. 8) were next analyzed by white light interferometry to determine the volume of the wear scars and the material buildup outside of the scar. The volume of material removed was normalized for load and the distance traveled during the test. […] The trend in wear rate is similar to the trend in COF (FIG. 7), with a 2.5 wt % loading producing the lowest amounts of wear. […] It is hypothesized that the increase in efficiency of additive 1 is attributable to the increased number of silver atoms/molecule and improved solubility in oil, which enables better dispersion of the additive in base oil.

A short description of another series: Solubility in base oil. In kind it is physicochemical. On the procedure: as §1
Solubility in base oil is an important property for tribologically promising high temperature additives, and is something that challenged previous generations of silver-organic additives.
Silver complex 1 was added to oil at 0.0, 1.0, 2.5, and 5 wt % loadings. A minimal amount of hexanes was added to aid in solubilizing the complex (1 mL hexanes/g of complex) before mixing with oil.

With `CCCCCCc1c(C)n[n-]c1C.[Ag+]` [Compound 1, Ag(3,5-dimethyl-4-n-hexyl-pyrazole)], the friction reduction in series [1] (2.5 wt % loading in 15W40) stood at 30%; in series [1] (2.5 wt % loading in PAO4), 20%. Moreover, the “COF behaviour as the oil begins to degrade above ~275° C.” value in series [1] (2.5 wt % loading in either base oil (PAO4, 15W40), temperature ramp 180 to 350° C.) was “the COF does not increase”. Besides, the wear reduction in series [2] (2.5 wt % loading in 15W40) was determined as 70%; in series [2] (2.5 wt % loading in PAO4) it was 60%. Besides, the “solubility in PAO4” value in “Solubility in base oil” (5 wt % loading, gentle heating at 40° C.) is listed as “homogeneous solution”. The “solubility in oil (PAO4 or 15W40)” value in the series “Solubility in base oil” (cloudy suspension at room temperature, heating to 40° C. and magnetic stirring, 1 mL hexanes/g of complex) was “dissolves fully”.

The values above are taken from patent US9777021B2, “Lubricant additives” (Qatar Foundation, priority 2016, dated 2017).
